Data from ChEMBL document CHEMBL3885861, “Open TG-GATES”.

Species: Rattus norvegicus
Assay: Open TG-GATES - Regimen: Daily Repeat
Assay type: toxicity, organism-based, Sprague-Dawley
Parameters: regimen Daily Repeat, gender Male, age 6 weeks
Conditions: in vivo, po, 300 mg/kg, route gavage, dose level Low; for APTT / Bas / Eos / Fbg / Hb / Ht / Lym / MCH / MCHC / MCV / Mono / Neu / PT / Plat / RBC / Ret / WBC: tissue Blood; for KIDNEY_L / KIDNEY_R / KIDNEY_TOTAL: tissue Kidney; for LIVER: tissue Liver; for A/G / ALP / ALT / AST / BUN / CRE / Ca / Cl / DBIL / GLC / IP / K / LDH / Na / PL / RALB / TBIL / TC / TG / TP / gamma-GTP: tissue Plasma

COc1ccc(O)c(C(C)(C)C)c1.COc1ccc(O)cc1C(C)(C)C [BUTYLATED HYDROXYANISOLE]
TERMINAL_BW (72 h, time 3 day): 219.2 g
APTT (72 h, time 3 day): 15.4 s
Bas (72 h, time 3 day): 0.3%
Eos (72 h, time 3 day): 1.2%
Fbg (72 h, time 3 day): 275.8 mg/dL
Hb (72 h, time 3 day): 12.7 g/dL
Ht (72 h, time 3 day): 37.2%
Lym (72 h, time 3 day): 78.2%
MCH (72 h, time 3 day): 20.4 pg
MCHC (72 h, time 3 day): 34.2%
MCV (72 h, time 3 day): 59.9 fL
Mono (72 h, time 3 day): 2.2%
Neu (72 h, time 3 day): 17.1%
PT (72 h, time 3 day): 11.5 s
Plat (72 h, time 3 day): 148 x10_4/uL
RBC (72 h, time 3 day): 623.6 x10_4/ul
Ret (72 h, time 3 day): 4.9%
WBC (72 h, time 3 day): 112 x10_2/uL
KIDNEY_L (72 h, time 3 day): 0.9 g
KIDNEY_R (72 h, time 3 day): 0.9 g
KIDNEY_TOTAL (72 h, time 3 day): 1.7 g
LIVER (72 h, time 3 day): 12.2 g
A/G (72 h, time 3 day): 0.8
ALP (72 h, time 3 day): 1525.6 IU/L
ALT (72 h, time 3 day): 36.4 IU/L
AST (72 h, time 3 day): 64.8 IU/L
BUN (72 h, time 3 day): 15.8 mg/dL
CRE (72 h, time 3 day): 0.2 mg/dL
Ca (72 h, time 3 day): 11.2 mg/dL
Cl (72 h, time 3 day): 106.4 meq/L
DBIL (72 h, time 3 day): 0.02 mg/dL
GLC (72 h, time 3 day): 171.4 mg/dL
IP (72 h, time 3 day): 6.3 mg/dL
K (72 h, time 3 day): 4.3 meq/L
LDH (72 h, time 3 day): 60.6 IU/L
Na (72 h, time 3 day): 142.2 meq/L
PL (72 h, time 3 day): 173.4 mg/dL
RALB (72 h, time 3 day): 2.7 g/dL
TBIL (72 h, time 3 day): 0.064 mg/dL
TC (72 h, time 3 day): 95.6 mg/dL
TG (72 h, time 3 day): 89.8 mg/dL
TP (72 h, time 3 day): 6 g/dL
gamma-GTP (72 h, time 3 day): 1.2 IU/L
TERMINAL_BW ([…], time 7 day): 261 g
TERMINAL_BW ([…], time 14 day): 311.5 g
TERMINAL_BW ([…], time 28 day): 401.5 g
APTT ([…], time 7 day): 15.7 s
Bas ([…], time 7 day): 0.2%
Eos ([…], time 7 day): 0.6%
Fbg ([…], time 7 day): 300.8 mg/dL
Hb ([…], time 7 day): 13 g/dL
Ht ([…], time 7 day): 38.5%
Lym ([…], time 7 day): 74.3%
MCH ([…], time 7 day): 20.4 pg
MCHC ([…], time 7 day): 33.7%
MCV ([…], time 7 day): 60.4 fL
Mono ([…], time 7 day): 2.4%
Neu ([…], time 7 day): 21.7%
PT ([…], time 7 day): 11.5 s
Plat ([…], time 7 day): 154.1 x10_4/uL
RBC ([…], time 7 day): 638 x10_4/ul
Ret ([…], time 7 day): 6.1%
WBC ([…], time 7 day): 97.1 x10_2/uL
APTT ([…], time 14 day): 15.2 s
Bas ([…], time 14 day): 0.2%
Eos ([…], time 14 day): 0.7%
Fbg ([…], time 14 day): 319.4 mg/dL
Hb ([…], time 14 day): 13.7 g/dL
Ht ([…], time 14 day): 39.7%
Lym ([…], time 14 day): 77.1%
MCH ([…], time 14 day): 19.7 pg
MCHC ([…], time 14 day): 34.6%
MCV ([…], time 14 day): 57 fL
Mono ([…], time 14 day): 2.2%
Neu ([…], time 14 day): 19.3%
PT ([…], time 14 day): 11.5 s
Plat ([…], time 14 day): 140.8 x10_4/uL
RBC ([…], time 14 day): 696.8 x10_4/ul
Ret ([…], time 14 day): 3.8%
WBC ([…], time 14 day): 87.1 x10_2/uL
APTT ([…], time 28 day): 19.5 s
Bas ([…], time 28 day): 0.5%
Eos ([…], time 28 day): 0.6%
Fbg ([…], time 28 day): 303.6 mg/dL
Hb ([…], time 28 day): 14.9 g/dL
Ht ([…], time 28 day): 41.2%
Lym ([…], time 28 day): 75.9%
MCH ([…], time 28 day): 19.7 pg
MCHC ([…], time 28 day): 36%
MCV ([…], time 28 day): 54.7 fL
Mono ([…], time 28 day): 1.7%
Neu ([…], time 28 day): 20.7%
PT ([…], time 28 day): 12.1 s
Plat ([…], time 28 day): 114.8 x10_4/uL
RBC ([…], time 28 day): 753.2 x10_4/ul
Ret ([…], time 28 day): 2.2%
WBC ([…], time 28 day): 131.8 x10_2/uL
KIDNEY_L ([…], time 7 day): 1 g
KIDNEY_R ([…], time 7 day): 1 g
KIDNEY_TOTAL ([…], time 7 day): 2.1 g
KIDNEY_L ([…], time 14 day): 1.1 g
KIDNEY_R ([…], time 14 day): 1.1 g
KIDNEY_TOTAL ([…], time 14 day): 2.2 g
KIDNEY_L ([…], time 28 day): 1.4 g
KIDNEY_R ([…], time 28 day): 1.3 g
KIDNEY_TOTAL ([…], time 28 day): 2.7 g
LIVER ([…], time 7 day): 13.6 g
LIVER ([…], time 14 day): 15.1 g
LIVER ([…], time 28 day): 18.5 g
A/G ([…], time 7 day): 0.8
ALP ([…], time 7 day): 1426 IU/L
ALT ([…], time 7 day): 33.8 IU/L
AST ([…], time 7 day): 59.8 IU/L
BUN ([…], time 7 day): 15.2 mg/dL
CRE ([…], time 7 day): 0.2 mg/dL
Ca ([…], time 7 day): 11.3 mg/dL
Cl ([…], time 7 day): 105 meq/L
DBIL ([…], time 7 day): 0.018 mg/dL
GLC ([…], time 7 day): 176 mg/dL
IP ([…], time 7 day): 7.2 mg/dL
K ([…], time 7 day): 3.9 meq/L
LDH ([…], time 7 day): 61.2 IU/L
Na ([…], time 7 day): 142.8 meq/L
PL ([…], time 7 day): 163 mg/dL
RALB ([…], time 7 day): 2.7 g/dL
TBIL ([…], time 7 day): 0.054 mg/dL
TC ([…], time 7 day): 91 mg/dL
TG ([…], time 7 day): 100.2 mg/dL
TP ([…], time 7 day): 6.1 g/dL
gamma-GTP ([…], time 7 day): 1 IU/L
A/G ([…], time 14 day): 0.8
ALP ([…], time 14 day): 1317.4 IU/L
ALT ([…], time 14 day): 34.6 IU/L
AST ([…], time 14 day): 58.6 IU/L
BUN ([…], time 14 day): 15.8 mg/dL
CRE ([…], time 14 day): 0.2 mg/dL
Ca ([…], time 14 day): 10.9 mg/dL
Cl ([…], time 14 day): 106.6 meq/L
DBIL ([…], time 14 day): 0.012 mg/dL
GLC ([…], time 14 day): 187 mg/dL
IP ([…], time 14 day): 6.5 mg/dL
K ([…], time 14 day): 3.5 meq/L
LDH ([…], time 14 day): 49.6 IU/L
Na ([…], time 14 day): 144.4 meq/L
PL ([…], time 14 day): 156.6 mg/dL
RALB ([…], time 14 day): 2.8 g/dL
TBIL ([…], time 14 day): 0.046 mg/dL
TC ([…], time 14 day): 88.2 mg/dL
TG ([…], time 14 day): 88.8 mg/dL
TP ([…], time 14 day): 6.3 g/dL
gamma-GTP ([…], time 14 day): 1.4 IU/L
A/G ([…], time 28 day): 0.7
ALP ([…], time 28 day): 844.2 IU/L
ALT ([…], time 28 day): 32.8 IU/L
AST ([…], time 28 day): 52.6 IU/L
BUN ([…], time 28 day): 16.2 mg/dL
CRE ([…], time 28 day): 0.3 mg/dL
Ca ([…], time 28 day): 11 mg/dL
Cl ([…], time 28 day): 103.8 meq/L
DBIL ([…], time 28 day): 0.012 mg/dL
GLC ([…], time 28 day): 189.6 mg/dL
IP ([…], time 28 day): 6.1 mg/dL
K ([…], time 28 day): 3.5 meq/L
LDH ([…], time 28 day): 53.6 IU/L
Na ([…], time 28 day): 144.4 meq/L
PL ([…], time 28 day): 167.2 mg/dL
RALB ([…], time 28 day): 2.7 g/dL
TBIL ([…], time 28 day): 0.056 mg/dL
TC ([…], time 28 day): 91.4 mg/dL
TG ([…], time 28 day): 132 mg/dL
TP ([…], time 28 day): 6.5 g/dL
gamma-GTP ([…], time 28 day): 1.4 IU/L
